From patent publication US5389643A, “Aminobenzoic acid derivatives useful for treating gastro-intestinal conditions” (Eisai Co., Ltd., priority 1992, dated 1995)
Structures can show the parent of a compound that is named as a salt. Where two headings read alike, the source gives them in different places.

How the values were obtained:
[1] = biological target: T1, 2-methylserotonin-induced contraction of the ileum (5-HT3 antagonism) (Cavia porcellus, UniProt O70212); assay: Antagonism against 2-methylserotonin-induced contraction or systole of ileum; format: cell-based, guinea pig (Hartley male); details: test compound added 30 minutes before 2-methylserotonin; nonterminal ileum, 37° C.; read-out: pA2 (converted)
T1 construct: from tissue; host or cells: isolated nonterminal ileum of male Hartley guinea pig
T1 sequence (O70212 20-490): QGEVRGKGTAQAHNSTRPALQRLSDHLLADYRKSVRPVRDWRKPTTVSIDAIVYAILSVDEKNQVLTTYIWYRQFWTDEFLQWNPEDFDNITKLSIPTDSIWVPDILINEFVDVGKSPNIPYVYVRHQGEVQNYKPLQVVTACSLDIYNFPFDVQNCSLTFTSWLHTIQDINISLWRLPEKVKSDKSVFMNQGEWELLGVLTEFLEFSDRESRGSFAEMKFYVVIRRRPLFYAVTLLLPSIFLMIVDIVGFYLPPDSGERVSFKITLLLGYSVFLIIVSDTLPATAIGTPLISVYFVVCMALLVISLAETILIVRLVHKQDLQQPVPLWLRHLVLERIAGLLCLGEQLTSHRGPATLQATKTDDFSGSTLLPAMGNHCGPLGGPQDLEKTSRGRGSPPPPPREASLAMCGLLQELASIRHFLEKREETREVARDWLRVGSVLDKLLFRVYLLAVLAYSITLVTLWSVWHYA
Experimental: Antagonism against 2-methylserotonin-induced contraction or systole of ileum
This experiment was made according to the method of Sanger et al. [see Eur. J. Pharmacol., 159, 113-124 (1989)]. The nonterminal ileum of a Hartley male guinea pig was suspended in the Krebs-Henseleit solution (37° C.) by applying a load of 0.5 g to the end of the ileum and a gaseous mixture comprising 95% of oxygen and 5% of carbon dioxide was passed through the solution. The contraction of the ileum was isometrically determined. After allowing the ileum to stand for one or more hours for stabilization, a solution of a test compound was added to the solution, and after 30 minutes, 2-methylserotonin was noncumulatively added. The pA2 value was calculated from the rightward shift of the dose-response curve of the 2-methylserotonin-induced contraction caused by the test compound according to the method of Rossum et al. [see Arch. Int. Pharmacodyn., 143, 299(1963)]. BRL 24682 was used as a control in this experiment.

[2] = tested on: cisplatin-induced vomiting; assay: Activity against cisplatin-induced vomiting of beagle; format: in vivo; details: intravenous, one hour after cisplatin 3 mg/kg, 5-hour observation
Experimental: Activity against cisplatin-induced vomiting of beagle
Beagles weighing 7 to 12 kg were used. 3 mg/kg of cisplatin (a product of Sigma) (1 ml/kg of physiological saline) was administered to each beagle through the vein of its forefoot. One hour after the administration of cisplatin, physiological saline (0.2 ml/kg) was administered to a control group of beagles and a solution of a test compound in physiological saline was administered to a test group of beagles, each through the vein of the other forefoot. The frequency of vomiting observed over a 5-hour period from the administration of cisplatin was recorded and the inhibitory ratio of the test compound was calculated according to the following formula.

[3] = tested on: gastric emptying function; assay: Activity for raising gastric emptying function; format: in vivo, Fischer male rats; details: oral (5 ml/kg), one hour before test food, versus control rat
Experimental: Activity for raising gastric emptying function
This experiment was made according to the method of Decktot et al. [see Eur. J. Pharmacol., 147, 313-316 (1988)]. Fischer male rats (weight: 160 to 180 g) were fasted for 18 hours before 3 ml of a test food comprising methylcellulose, beef broth, casein, sugar and corn starch was orally administered to each rat. One hour after the administration, the stomach was extirpated from each rat. The gastric emptying ratio was calculated from the weight of the test food remaining in the stomach. The ratio of rise of the gastric emptying function was determined by comparing the gastiric emptying ratio of a medicated rat with that of a control rat which had not administered any test compounds. Each test compound (5 ml/kg) was orally administered one hour before the administration of the test food. BRL 24682 was used as a control in this experiment.

[4] = tested on: contraction of guinea pig ileum induced by electrical field stimulation (acetylcholine release); assay: Effect of increasing contraction of guinea pig ileum induced by electrical field stimulation; format: cell-based; details: electrical field stimulation once per 10 seconds, cumulative addition at intervals of 10 minutes, 37° C., read-out: Min. concn. causing increment of ileal contraction
Experimental: Effect of increasing contraction of guinea pig ileum induced by electrical field stimulation
This experiment was made according to the method of Sanger et al. [see Br. J. Pharmacol., 91, 77-87 (1987)]. The longitudinal muscle of the nonterminal ileum of a guinea pig was separated and vertically suspended in the Krebs-Henseleit solution (37° C.) in a Magnus tube by applying a load of 0.5 g to the end of the muscle. A mixed gas comprising 95% of oxygen and 5% of carbon dioxide was passed through the solution. The contraction of the muscle was isometrically determined. Electrical field stimulation was applied to the muscle by the use of a platinum electrode once per 10 seconds to induce the contraction of the muscle. The contraction was caused through the release of acetylcholine. After the muscle had been stabilized, a solution of a test compound was cumulatively added into the Magnus tube at intervals of 10 minutes. The effect of the test compound is represented by percentage based on the initial contraction. The minimum concentration of each test compound at which an increment was found in the contraction due to the release of acetylcholine is shown in Table 4.

rat = assay: Oral toxicity in rat, one week; format: in vivo; details: dose of up to 30 mg/kg
[5] = listed as 42 (+)-isomer, hydrochloride
[6] = listed as 43 (-)-isomer, hydrochloride

Row | SMILES | Kb [1] | Inhibitory ratio against cisplatin-induced vomiting ([2]; 0.03 mg/kg) | Inhibitory ratio against cisplatin-induced vomiting ([2]; 0.1 mg/kg) | Ratio of rise of gastric emptying function [3] | minimal effective concentration ([4]; listed as 4 (+)-isomer, hydrochloride) | toxicity on oral administration for one week (rat) | Ratio of rise of gastric emptying function [3, 5] | minimal effective concentration [4, 5] | Ratio of rise of gastric emptying function [3, 6] | minimal effective concentration [4, 6] | Inhibitory ratio against cisplatin-induced vomiting ([2]; 0.3 mg/kg) | minimal effective concentration ([4]; Cavia porcellus, 10 min)
1 | CC#CC(C)Oc1cc(N)c(Cl)cc1C(=O)N[C@H]1C[C@H]2CC[C@@H](C1)N2C (single isomer, unassigned; (-)) [Example 4, (-)-endo-4-Amino-5-chloro-N-(8-methyl-8-azabicyclo[3.2.1]oct-3-yl)-2-{(3-pentyn-2-yl)oxy)benzamide hydrochloride] | 2.69 nM | 37% | 78% | 31.1% | 0.056 µM | no toxicity was exhibited in a dose of up to 30 mg/kg | – | – | – | – | – | –
2 | C#CCC(C)Oc1cc(N)c(Cl)cc1C(=O)N[C@H]1C[C@H]2CC[C@@H](C1)N2C (single isomer, unassigned; (+)) [Example 42, (+)-endo-4-Amino-5-chloro-N-(8-methyl-8-azabicyclo[3.2.1]oct-3-yl)-2-{(4-pentyn-2-yl)oxy}benzamide hydrochloride] | 1.2 nM | 59% | 92% | – | – | – | 22.2% | 0.086 µM | – | – | – | –
3 | C#CCC(C)Oc1cc(N)c(Cl)cc1C(=O)N[C@H]1C[C@H]2CC[C@@H](C1)N2C (single isomer, unassigned; (-)) [Example 43, (-)-endo-4-Amino-5-chloro-N-(8-methyl-8-azabicyclo[3.2.1]oct-3-yl)-2-{(4-pentyn-2-yl)oxy}benzamide hydrochloride] | – | – | – | – | – | no toxicity was exhibited in a dose of up to 30 mg/kg | – | – | 12.9% | 0.47 µM | – | –
4 | C#CCOc1cc(N)c(Cl)cc1C(=O)N[C@H]1C[C@H]2CC[C@@H](C1)N2C [Example 21, endo-4-Amino-5-chloro-(8-methyl-8-azabicyclo[3.2.1]oct-3-yl)-2-propargyloxybenzamide hydrochloride] | 3.47 nM | – | – | 18.9% | – | – | – | – | – | – | 100% | 0.052 µM
5 | CC#CC(C)Oc1cc(N)c(Cl)cc1C(=O)N[C@H]1C[C@H]2CC[C@@H](C1)N2C (stereo partly drawn) [Example 2, endo-4-Amino-5-chloro-N-(8-methyl-8-azabicyclo[3.2.1]oct-3-yl) -2-{(3-pentyn-2-yl)oxy}benzamide hydrochloride] | 2.09 nM | – | – | 24.5% | – | – | – | – | – | – | – | 0.05 µM
